{"source": "patent US6303621A", "about": "“Method for treating cancers using a diiodo thyronine analogue having no significant hormonal activity and a vinca alkaloid and compositions comprising the same” (priority 1999, dated 2001)", "key": {"tumor cells": {"tested_on": "tumor cells", "experiment": "Tumor cell apoptosis and micronucleation", "format": "cell-based"}, "DIME-tolerant clones [1]": {"tested_on": "DIME-tolerant clones", "experimental": "(§3) DIME-tolerant clones DR6and DR 7 were isolated by incubation of cells in a mediim containing 1.5 μM DIME for 11 days. At that time surviving colonies were picked with the use of cloning rings and plated for growth in fresh mediim still containing 1.5 μM DIME. After two weeks of growth in the presence of drug the cells were aliquoted and frozen. For each experiment a vial of frozen cells was thawed, the cells were plated in the absence of drug, and incubated for 2-3 days in drug-free mediim."}, "thyroid": {"tested_on": "thyroid", "conditions": "rats; as compared to thyroxine; cited from earlier work"}, "caspase 3": {"tested_on": "caspase 3", "experiment": "Caspase 3 assay in drug-treated cells", "format": "cell-based, human", "conditions": "0.75 μM DIME or 2 nM vincristine alone, 3 days", "method": "g. Caspase 3 assay. MDA 231 cells were grown for 3 days in the absence of drugs (control) or in the presence of 0.75 μM DIME, or in the presence of 2 nM vincristine, or in the presence of both drugs. After harvesting and washing the cells with PBS, they were lysed in a lysis buffer (10 mM HEPES, 5 mM DTT, 2 mM EDTA, 1 mM PMSF, 0.1% CHAPS, 20 μg/ml each of aprotinin, leupeptin, pepstatin, pH 7.4), and were frozen and thawed 3 times. […] Each cell extract was incubated at room temperature with and without preincubation with the caspase inactivator DEVD-CMK. The difference of fluorescence was plotted against time. The fluorescence was calibrated with the fluorophore AFC."}, "cells (DNA breaks)": {"tested_on": "cells (DNA breaks)", "experiment": "DNA breaks in cells incubated with DIME", "format": "cell-based"}, "tadpole metamorphosis": {"tested_on": "tadpole metamorphosis", "conditions": "in vivo; cited from earlier work"}, "tubulin α+β": {"tested_on": "tubulin α+β", "experiment": "Inhibition of tubulin polymerization / assembly of microtubules", "format": "biochemical", "conditions": "FIG. 4b", "method": "The optical tests were performed as reported by Buki et al., International Journal of Oncology 10:911-913 (1997)."}, "[2]": {"experiment": "Serum half-life and bioavailability of 14C-labeled DIME", "format": "in vivo", "conditions": "mice", "method": "Mice were orally dosed with 126 mg/kg 14C-labeled DIME (Compound 1). After dosing, blood sampling times were 15 and 30 minutes and 1, 2, 4, 6, 8 and 24 hours. Aliquots (50 μL) of blood were assayed in a liquid scintillation counter and data expressed as microgram-equivalents per mL. The blood level data were analyzed by the […] method (Micromath, Salt Lake City, Utah). Parallel groups of mice were dosed intravenously with 24.5 mg/kg 14C-labeled DIME and blood sampling times were 10, 20 and 30 minutes and 1, 2, 4, 6 and 8 hours."}, "[3]": {"tested_on": "MDA-MB-231 human mammary cancer cells", "experiment": "Colony formation (cell killing)", "format": "cell-based", "method": "(§1) c. MDA-MB-231 human mammary cancer cells were cultured and treated as reported previously by Mendeleyev et al., International Journal of Oncology 10:689-695 (1997) and Zhen et al., International Journal of Oncology 10:689-695 (1997). For the assay of cell growth kinetics cells, were seeded into 2cm^2 wells (24-well plates) at a density of 8×10^3 /cm^2 at the time of seeding. Vincristine (or vinblastine) and DIME (or DIPE) were added from DMSO dilutions (1-2 μl/ 500 μl culture mediim) either from separate drug solutions or for the construction of median effect plot (FIG. 1) from a pre-made mixture of both drugs (e.g. 0.75 μM DIME+2 nM vincristine) and simultaneous dilutions thereof (Chou et al. Eur. J. Biochem. 115: 207-216 (1981)). The cultures were incubated at 37° C. for 4 days and growth rates, leading to near confluency in drug-free controls, were monitored by cell counting in a haemocytometer after detachment by trypsin treatment Mendeleyev et al., International Journal of Oncology 10:689-695 (1997) and Zhen et al., International Journal of Oncology 10:689-695 (1997). Mathematical analysis of growth curves and median effects and isobolograms were carried out by published procedures (Chou et al. J. Theor. Biol. 65: 345-356 (1977), Chou et al. Eur. J. Biochem. 115: 207-216 (1981) and Chou et al. Adv. in Enzyme Regulation 22:27-55 (1984)) and error bars indicate SD=Σx^2 +L -(Σx)^2 /n where X is the numerical results with n=3-5.\n(§2) e. Colony formation was quantitated as reported by. Each colony of 50 cells is the outgrowth from one cell, plated 10 days before colony counting."}, "[4]": {"tested_on": "MDA-MB-231 human mammary cancer cells", "experiment": "Cell growth kinetics, median effect and isobologram", "format": "cell-based", "conditions": "0.75 μM DIME (or DIPE) or 1-2 nM vincristine alone", "method": "as §1\nKinetics of vincristine-DIME interactions: Interpretation of conventional isobolograms, consisting of plots of I50 values of two drugs alone and in combination is valid only if it is proven kinetically that both drugs bind at mutually exclusive sites.\nIsobologram analysis of the combined action of DIME and vincristine is illustrated in FIG. 2, and it is evident that the action of the two drugs in combination exceed an additive effect, which is depicted by a concave curve, contrasting with additive action, which would display a straight line connecting the I50 values for each drug alone (dotted line in FIG. 2). […]"}, "[5]": {"tested_on": "DIME-tolerant clones DR6 and DR7", "experiment": "Colony formation of DIME-tolerant clones", "format": "cell-based, human", "conditions": "concentrations that reduce colony formation by 10^3 in parent line", "description": "as §2"}, "microtubules": {"tested_on": "microtubules", "experiment": "Microtubule binding"}, "[6]": {"tested_on": "DIME-tolerant cells (DR6, DR7)", "experiment": "Cell growth of DIME-tolerant cells", "format": "cell-based, human", "method": "as §1, with “Mathematical analysis of growth curves and median effects and isobolograms were carried out by published procedures (Chou et al. J. Theor. Biol. 65: 345-356 (1977), Chou et al. Eur. J. Biochem. 115: 207-216 (1981) and Chou et al. Adv. in Enzyme Regulation 22:27-55 (1984)) and error bars indicate SD=Σx^2 +L -(Σx)^2 /n where X is the numerical results with n=3-5.” left out"}, "DIME-tolerant clones [7]": {"tested_on": "DIME-tolerant clones", "experiment": "DIME uptake by DIME-tolerant clones", "conditions": "DIME-tolerant clones grown in 1.5 μM DIME", "experimental": "as §3"}, "[8]": {"experiment": "Toxicity, daily oral dosing in nude mice", "format": "in vivo", "conditions": "daily oral dose 1 g/kg, 12-15 days", "method": "Ten nude mice were administered a daily oral dose of ^14 C-labeled DIME (Compound 1) (1.0 g/kg, 0.1 mL in corn oil) for a period of 12-15 days."}, "[9]": {"tested_on": "metaphase arrest in cancer cells", "experiment": "Metaphase block (mitotic block)", "format": "cell-based", "description": "Metaphase was quantitated as reported by Mendeleyev et al., International Journal of Oncology 10:689-695 (1997).\nSince vincristine and vinblastine were equivalent here we illustrate only DIME-vinblastine interaction on mitotic block."}}, "note": "Entries after “also recorded” stand apart in the source; their conditions may differ."}
{"smiles": "COC(=O)c1cc(I)c(Oc2ccc(OC)cc2)c(I)c1", "note": "[DIME, methyl 3,5-diiodo-4-(4'-methoxyphenoxy) benzoate]", "values": [{"measurement": "Tumor cell apoptosis / micronucleation", "setting": "tumor cells", "value": "induce tumor cell apoptosis preceded by micronucleation"}, {"measurement": "Drug permeation in DIME-tolerant cells", "setting": "DIME-tolerant clones [1]", "value": "significant decrease of drug permeation"}, {"measurement": "Inhibition of uptake of iodine into the thyroid", "setting": "thyroid", "value": 15, "unit": "%"}, {"measurement": "Activation of caspase 3, single drug", "setting": "caspase 3", "value": "small rate of caspase 3 activity"}, {"measurement": "DNA breaks", "setting": "cells (DNA breaks)", "value": "induces DNA breaks"}, {"measurement": "Metabolic or cell differentiating activity (tadpole metamorphosis)", "setting": "tadpole metamorphosis", "value": "no significant metabolic or cell differentiating activity"}, {"measurement": "Inhibition of assembly of microtubules, DIME versus DIPE", "setting": "tubulin α+β", "value": "equivalency; also recorded: Inhibitory effects"}, {"measurement": "half-life (t1/2) in serum", "setting": "[2]", "value": "2 to 2.5", "unit": "h"}, {"measurement": "Inhibition of colony formation, DIME versus DIPE", "setting": "[3]; FIG. 4a", "value": "equivalency; also recorded: Equivalent effectivity"}, {"measurement": "Reduction of colony formation in parent cell line (factor)", "setting": "[3]; FIG. 8, parent (wild type) cell line", "value": "10^3"}, {"measurement": "Growth rate with single drug", "setting": "[4]", "value": "do not elicit effects that exceed the SD of average cell growth rates; also recorded: fall within SD values"}, {"measurement": "Inhibition of colony formation of DR6 and DR7 clones", "setting": "[5]", "value": "only marginal inhibition of colony formation"}, {"measurement": "Binding to microtubules", "setting": "microtubules", "value": "bind to microtubules"}, {"measurement": "Doubling time of DIME-tolerant cells after removal of DIME", "setting": "[6]; DIME removed", "value": "40 to 45", "unit": "h"}, {"measurement": "Doubling time of DIME-tolerant cells", "setting": "[6]; in the presence of 1.5 μM DIME, cancer cells 20 hrs", "value": "70 to 78", "unit": "h"}, {"measurement": "Reduction of DIME uptake", "setting": "DIME-tolerant clones [7]", "value": 50, "unit": "%"}, {"measurement": "Ill effects", "setting": "[8]", "value": "remarkably nontoxic; also recorded: No ill effects were observed"}, {"measurement": "M-block", "setting": "[9]", "value": "induces M-block"}]}
